Measured values: patent publication US20200278355A1, “CONJUGATED PROTEINS AND USES THEREOF” (THE SCRIPPS RESEARCH INSTITUTE, priority 2017, published 2020)

Assays:
NR0B1-SNW1 interaction = molecular target: T1, NR0B1-SNW1 interaction (Homo sapiens, UniProt P51843); assay: In vitro binding assay: NR0B1 in H2122 lysate binding to immobilized FLAG-SNW1
T1 construct: endogenous in cells; host or cells: NR0B1: H2122 cell lysate
T1 sequence (P51843 1-470): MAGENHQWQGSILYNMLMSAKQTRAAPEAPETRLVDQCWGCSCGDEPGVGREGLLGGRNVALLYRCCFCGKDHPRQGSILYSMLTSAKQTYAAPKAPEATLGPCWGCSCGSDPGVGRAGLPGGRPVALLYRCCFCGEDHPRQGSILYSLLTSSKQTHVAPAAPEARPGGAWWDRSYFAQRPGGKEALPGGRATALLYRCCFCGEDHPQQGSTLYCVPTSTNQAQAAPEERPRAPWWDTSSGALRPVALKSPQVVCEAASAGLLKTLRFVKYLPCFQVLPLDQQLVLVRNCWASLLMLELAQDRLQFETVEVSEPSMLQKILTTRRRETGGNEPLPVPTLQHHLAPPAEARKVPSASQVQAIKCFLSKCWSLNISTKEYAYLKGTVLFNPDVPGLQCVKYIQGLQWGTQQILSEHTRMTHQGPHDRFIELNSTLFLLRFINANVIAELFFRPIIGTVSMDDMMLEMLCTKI
Protocol: H2122 clarified cell lysate (100 μL, 1 mg ml^−1) in IP-buffer were incubated with the indicated compounds or vehicle (DMSO) for 3 hours at 4° C. with rotation. Following treatment, 3 volumes of IP-buffer was added along with immobilized FLAG-SNW1 beads (30 μL, 50:50 slurry), which was incubated for an additional hour at 4° C. Beads were washed three times with IP-buffer supplemented with 500 mM NaCl. Immunoprecipitated proteins were resolved by SDS-PAGE and analyzed by immunoblotting. NR0B1 and HA-NR0B1 levels were determined by using the NR0B1 antibody (Cell Signaling). IC50 curves were determined using Prism 6 (Graphpad) software, with maximum and minimum values set at 100% NR0B1 bound 0% NR0B1 bound respectively.
Statistical analysis was preformed using GraphPad Prism version 6 or 7 for Mac, GraphPad Software, La Jolla Calif. USA, or the R statistical programming language. Inhibition curves of the NR0B1-SNW1 interactions by NR0B1-ligand are fit as using log(inhibitor) vs % normalized remaining of NR0B1-SNW1 interaction and data points are plotted as the mean±SD (n=2-5 per group). NR0B1 half-life was calculated from a one-phase exponential decay curve plotted as mean±SD (4-10 per group). Statistical significance was defined as p<0.05 and determined by 2-tailed Student's t-test (FIG. 1I, FIG. 3B), two-way Anova with Bonferroni post-test analysis (FIG. 1J) or correlation analysis using Pearson product-moment correlation coefficient (FIG. 4B, FIG. 10G).
Next, a chemical probe targeting C274 of NR0B1 was developed. Using an in vitro binding assay (FIG. 5B), an ˜80-member library of cysteine-reactive electrophilic compounds was screened at 50 μM for blockade of interactions between endogenous NR0B1 and recombinant FLAG-SNW1 in cell lysates (FIG. 5C). Among the hits (>50% blockade) were a series of N-disubstituted chloroacetamides (CAs), including BPK-26 (FIGS. 5D, 5E), that were selected for further investigation. […] Both BPK-26 and BPK-29 inhibited the NR0B1-SNW1 interaction with IC50 values between 10-20 μM in vitro (FIG. 11C).

[1] = system: cysteine reactivity in H2122 and H1975 cells; assay: isoTOP-ABPP of cysteine reactivity changes after staurosporine or AZD9291 treatment; assay type: cell-based, human; details: staurosporine 1 μM, 4 h (H2122, H1975); AZD9291 1 μM, 24 h (H1975)
Protocol: For analysis of cysteines that change following induction of apoptosis, H2122 and H1975 cells were treated with DMSO or staurosporine (1 μM, 4 h) in full RPMI. H1975 cells were treated with DMSO or AZD9291 (1 μM, 24 h) in full RPMI. Cells were lysed as described above. […] Samples were conjugated by copper-catalyzed azide-alkyne cycloaddition (CuAAC) to isotopically labeled, TEV-cleavable tags (TEV-tags). Heavy CuAAC reaction mixtures was added to the DMSO-treated or shGFP control samples and light CuAAC reaction mixture was added to compound-treated or shNRF2 samples. The CuAAC reaction mixture consisted of TEV tags (light or heavy, 10 μL of 5 mM stocks in DMSO, final concentration=100 μM), 1 mM tris(2-carboxyethyl)phosphine hydrochloride (TCEP; fresh 50× stock in water, final concentration=1 mM), ligand (17× stock in DMSO:t-butanol 1:4, final concentration=100 μM) and 1 mM CuSO4 (50× stock in water, final concentration=1 mM). The samples were allowed to react for 1 h at which point the samples were centrifuged (16,000×g, 5 min, 4° C.). The resulting pellets were sonicated in ice-cold methanol (500 μL) and the resuspended light- and heavy-labeled samples were then combined pairwise and centrifuged (16,000×g, 5 min, 4° C.). […] Samples were analyzed using an LTQVelos Orbitrap mass spectrometer (Thermo Scientific) coupled to an Agilent 1200-series quaternary pump. […]

KEAP1-mutant NSCLC cells = assay: Colony formation in soft agar, KEAP1-mutant NSCLC cells; assay type: cell-based, human; details: 5 μM
Text: Based on its in situ activity (FIG. 6D and FIG. 12A, 12G) and selectivity (FIGS. 6A, 6B), BPK-29 was chosen for additional biological studies. […] Exogenous expression of […] the growth inhibition caused by BPK-29.

NR0B1 = molecular target: T2, NR0B1 (Homo sapiens, UniProt P51843); assay: isoTOP-ABPP of compound-treated H460 cells: NR0B1; assay type: cell-based; details: NSCLC cells, 40 μM, 3 h
T2 construct: H460 cells or H460 cells expressing luciferase in a 10 cm plate were incubated with indicated compounds; endogenous in cells; host or cells: H460 (NSCLC, KEAP1-mutant)
T2 sequence (P51843 1-470): T1 sequence (P51843 1-470)
Protocol: For analysis of NR0B1 ligands or control compound reactivity, H460 cells or H460 cells expressing luciferase in a 10 cm plate were incubated with indicated compounds in serum/dye-free RPMI for 3 hours at 37° C. Cells were washed once ice-cold PBS and lysed in 1% Triton X-100 dissolved in PBS with protease inhibitors (Sigma) by sonication. Samples were clarified by centrifugation for 10 min at 16,000×g. Lysate was adjusted to 1.5 mg ml^−1 in 500 μL.
Samples were labeled for 1 h at ambient temperature with 100 μM iodoacetamide alkyne (1, IA-alkyne, 5 μL of 10 mM stock in DMSO). Samples were conjugated by copper-catalyzed azide-alkyne cycloaddition (CuAAC) to isotopically labeled, TEV-cleavable tags (TEV-tags). Heavy CuAAC reaction mixtures was added to the DMSO-treated or shGFP control samples and light CuAAC reaction mixture was added to compound-treated or shNRF2 samples. The CuAAC reaction mixture consisted of TEV tags (light or heavy, 10 μL of 5 mM stocks in DMSO, final concentration=100 μM), 1 mM tris(2-carboxyethyl)phosphine hydrochloride (TCEP; fresh 50× stock in water, final concentration=1 mM), ligand (17× stock in DMSO:t-butanol 1:4, final concentration=100 μM) and 1 mM CuSO4 (50× stock in water, final concentration=1 mM). The samples were allowed to react for 1 h at which point the samples were centrifuged (16,000×g, 5 min, 4° C.). The resulting pellets were sonicated in ice-cold methanol (500 μL) and the resuspended light- and heavy-labeled samples were then combined pairwise and centrifuged (16,000×g, 5 min, 4° C.). The pellets were solubilized in PBS containing 1.2% SDS (1 mL) with sonication and heating (5 min, 95° C.) and any insoluble material was removed by an additional centrifugation step at ambient temperature (14,000×g, 1 min).
For each sample, 100 μL of streptavidin-agarose beads slurry (Fisher) was washed in 10 mL PBS and then resuspended in 6 mL PBS (final concentration 0.2% SDS in PBS). The SDS-solubilized proteins were added to the suspension of streptavidin-agarose beads and the bead mixture was rotated for 3 h at ambient temperature. After incubation, the beads were pelleted by centrifugation (1,400×g, 3 min) and were washed (2×10 mL PBS and 2×10 mL water).
The beads were transferred to eppendorftubes with 1 mL PBS, centrifuged (1,400×g, 3 min), and resuspended in PBS containing 6 M urea (500 μL). To this was added 10 mM DTT (25 μL of a 200 mM stock in water) and the beads were incubated at 65° C. for 15 mins. 20 mM iodoacetamide (25 μL of a 400 mM stock in water) was then added and allowed to react at 37° C. for 30 mins with shaking. The bead mixture was diluted with 900 μL PBS, pelleted by centrifugation (1,400×g, 3 min), and resuspended in PBS containing 2 M urea (200 μL). To this was added 1 mM CaCl2 (2 μL of a 200 mM stock in water) and trypsin (2 μg, Promega, sequencing grade) and the digestion was allowed to proceed overnight at 37° C. with shaking. The beads were separated from the digest with Micro Bio-Spin columns (Bio-Rad) by centrifugation (1,000×g, 1 min), washed (2×1 mL PBS and 2×1 mL water) and then transferred to fresh eppendorf tubes with 1 mL water. The washed beads were washed once further in 140 μL TEV buffer (50 mM Tris, pH 8, 0.5 mM EDTA, 1 mM DTT) and then resuspended in 140 μL TEV buffer. 5 μL TEV protease (80 μM) was added and the reactions were rotated overnight at 29° C. The TEV digest was separated from the beads with Micro Bio-Spin columns by centrifugation (1,400×g, 3 min) and the beads were washed once with water (100 μL). The samples were then acidified to a final concentration of 5% (v/v) formic acid and stored at −80° C. prior to analysis.
Samples processed for multidimensional liquid chromatography tandem mass spectrometry (MudPIT) were pressure loaded onto a 250 μm (inner diameter) fused silica capillary columns packed with C18 resin (Aqua 5 μm, Phenomenex). […]

For `Cc1ccccc1C(=O)N1CCCC(N(Cc2ccccc2)C(=O)CCl)CC1` (stereo not drawn) [BPK-28, N-benzyl-2-chloro-N-(1-(2-methylbenzoyl)azepan-4-yl)acetamide], the “relative potency for inhibition of FLAG-SNW1 binding to NR0B1 (structure-activity relationship)” value (NR0B1-SNW1 interaction; compounds at 50 μM) was “only modest reductions in potency”.
In the case of `CN[C@@H]1C[C@H]2O[C@@](C)([C@@H]1OC)n1c3ccccc3c3c4c(c5c6ccccc6n2c5c31)C(=O)NC4` [staurosporine], the “changes in cysteine reactivity” value [1] is reported as “neither of which caused substantive changes in cysteine reactivity”.
In the case of `C=CC(=O)Nc1cc(Nc2nccc(-c3cn(C)c4ccccc34)n2)c(OC)cc1N(C)CCN(C)C` [AZD9291], the “changes in cysteine reactivity” value [1] is reported as “neither of which caused substantive changes in cysteine reactivity”.
In the case of `COc1cc(CN(C(=O)CCl)c2cc(C(C)(C)C)ccc2OC)ccc1OCc1ccccc1` [BPK-27, N-(4-(benzyloxy)-3-methoxybenzyl)-N-(5-(tert-butyl)-2-methoxyphenyl)-2-chloroacetamide], the “colony formation in soft agar” value (KEAP1-mutant NSCLC cells) is reported as “much less of an effect”, the “engagement of C274 of NR0B1” value (NR0B1) is reported as “did not engage C274” and the “inhibition of the NR0B1-SNW1 interaction” value (NR0B1-SNW1 interaction; tested concentration range of 1-50 μM) is reported as “did not inhibit”.
